From article PMC5218480 (PLoS ONE, 2017)

Tested on: MV-4-11 cells
Assay: Gene expression microarray analysis (Affymetrix PrimeView) and GSEA
Format: cell-based, human
Parameters: RFU PODN (11730768_x_at) / Fold change /veh PODN (11730768_x_at) / RFU LINC00158 (11744669_a_at) / Fold change /veh LINC00158 (11744669_a_at) / RFU DUSP10 (11751237_a_at) / Fold change /veh DUSP10 (11751237_a_at) / RFU ID3 (11757404_x_at) / Fold change /veh ID3 (11757404_x_at) / RFU PLEKHG5 (11737974_s_at) / Fold change /veh PLEKHG5 (11737974_s_at) / RFU LRRC4B (11730491_at) / Fold change /veh LRRC4B (11730491_at) / RFU GIMAP4 (11747438_a_at) / Fold change /veh GIMAP4 (11747438_a_at) / RFU KRT8 (11758183_x_at) / Fold change /veh KRT8 (11758183_x_at) / RFU CNN1 (11734310_a_at) / Fold change /veh CNN1 (11734310_a_at) / RFU VPS37D (11726825_at) / Fold change /veh VPS37D (11726825_at) / RFU C10orf10 (11716522_x_at) / Fold change /veh C10orf10 (11716522_x_at) / RFU KIR2DL2 /// KIR2DL4 /// KIR2DL5A /// KIR2DL5B /// KIR2DS1 /// KIR2DS2 /// KIR2DS3 /// KIR2DS4 /// KIR3DL3 /// KIR3DL3 /// KIR3DS1 (11738374_at) / Fold change /veh KIR2DL2 /// KIR2DL4 /// KIR2DL5A /// KIR2DL5B /// KIR2DS1 /// KIR2DS2 /// KIR2DS3 /// KIR2DS4 /// KIR3DL3 /// KIR3DL3 /// KIR3DS1 (11738374_at) / RFU C1QL1 (11718748_at) / Fold change /veh C1QL1 (11718748_at) / RFU TMPRSS4 (11747572_a_at) / Fold change /veh TMPRSS4 (11747572_a_at) / RFU HAMP (11756126_x_at) / Fold change /veh HAMP (11756126_x_at) / RFU RNFT2 (11725882_a_at) / Fold change /veh RNFT2 (11725882_a_at) / RFU NR4A2 (11747474_a_at) / Fold change /veh NR4A2 (11747474_a_at) / RFU ABCC12 (11746883_a_at) / Fold change /veh ABCC12 (11746883_a_at) / RFU TMEM136 (11760407_x_at) / Fold change /veh TMEM136 (11760407_x_at) / RFU CLDN22 /// WWC2 (11732394_at) / Fold change /veh CLDN22 /// WWC2 (11732394_at) / RFU HLA-DPB1 (11760878_x_at) / Fold change /veh HLA-DPB1 (11760878_x_at) / RFU SPINT1 (11716480_a_at) / Fold change /veh SPINT1 (11716480_a_at) / RFU GAP43 (11754022_s_at) / Fold change /veh GAP43 (11754022_s_at) / RFU A4GNT (11735810_at) / Fold change /veh A4GNT (11735810_at) / RFU PRB3 (11715151_x_at) / Fold change /veh PRB3 (11715151_x_at) / RFU TUBB4B (11761932_at) / Fold change /veh TUBB4B (11761932_at) / RFU CAPN14 (11732068_a_at) / Fold change /veh CAPN14 (11732068_a_at) / RFU TMCC2 (11721928_a_at) / Fold change /veh TMCC2 (11721928_a_at) / RFU IRGQ (11745062_a_at) / Fold change /veh IRGQ (11745062_a_at) / RFU FAM174B (11720279_a_at) / Fold change /veh FAM174B (11720279_a_at) / RFU TMPRSS4 (11748680_a_at) / Fold change /veh TMPRSS4 (11748680_a_at) / RFU FAM212B (11763350_a_at) / Fold change /veh FAM212B (11763350_a_at) / RFU PLEKHG5 (11743358_a_at) / Fold change /veh PLEKHG5 (11743358_a_at) / RFU ZSCAN30 (11745921_a_at) / Fold change /veh ZSCAN30 (11745921_a_at) / RFU CMKLR1 (11741424_a_at) / Fold change /veh CMKLR1 (11741424_a_at) / RFU LOC101060620 /// MAPK8IP1 (11723275_at) / Fold change /veh LOC101060620 /// MAPK8IP1 (11723275_at) / RFU SPTSSB (11747773_x_at) / Fold change /veh SPTSSB (11747773_x_at) / RFU PRSS12 (11739890_at) / Fold change /veh PRSS12 (11739890_at) / RFU BIN1 (11741810_x_at) / Fold change /veh BIN1 (11741810_x_at) / RFU WNT11 (11732464_a_at) / Fold change /veh WNT11 (11732464_a_at) / RFU C10orf10 (11716521_a_at) / Fold change /veh C10orf10 (11716521_a_at) / RFU C5orf56 (11738089_at) / Fold change /veh C5orf56 (11738089_at) / RFU CYB561 (11721691_x_at) / Fold change /veh CYB561 (11721691_x_at) / RFU ANKRD19P (11752326_a_at) / Fold change /veh ANKRD19P (11752326_a_at) / RFU OR2T12 /// OR2T33 /// OR2T8 (11738714_s_at) / Fold change /veh OR2T12 /// OR2T33 /// OR2T8 (11738714_s_at) / RFU VCAN (11748164_a_at) / Fold change /veh VCAN (11748164_a_at) / RFU JSRP1 (11732532_at) / Fold change /veh JSRP1 (11732532_at) / RFU KRTAP10-11 (11738290_x_at) / Fold change /veh KRTAP10-11 (11738290_x_at) / RFU MYO3A (11730013_a_at) / Fold change /veh MYO3A (11730013_a_at) / RFU EBF3 (11725865_a_at) / Fold change /veh EBF3 (11725865_a_at) / RFU CAMK2N1 (11719241_x_at) / Fold change /veh CAMK2N1 (11719241_x_at) / RFU C5orf56 (11738088_a_at) / Fold change /veh C5orf56 (11738088_a_at) / RFU OLFML3 (11715873_a_at) / Fold change /veh OLFML3 (11715873_a_at) / RFU LOC100653217 /// NTM (11731650_a_at) / Fold change /veh LOC100653217 /// NTM (11731650_a_at) / RFU MAPK11 (11762145_a_at) / Fold change /veh MAPK11 (11762145_a_at) / RFU FIZ1 (11724087_x_at) / Fold change /veh FIZ1 (11724087_x_at) / RFU OASL (11726364_x_at) / Fold change /veh OASL (11726364_x_at) / RFU SOX15 (11748057_x_at) / Fold change /veh SOX15 (11748057_x_at) / RFU CD79A (11719716_a_at) / Fold change /veh CD79A (11719716_a_at) / RFU HIST1H1D (11736915_at) / Fold change /veh HIST1H1D (11736915_at) / RFU CASKIN2 (11723855_a_at) / Fold change /veh CASKIN2 (11723855_a_at) / RFU LOC730098 (11760151_x_at) / Fold change /veh LOC730098 (11760151_x_at) / RFU OR4N2 (11742367_at) / Fold change /veh OR4N2 (11742367_at) / RFU PRRT2 (11749266_a_at) / Fold change /veh PRRT2 (11749266_a_at) / RFU SNX32 (11753110_a_at) / Fold change /veh SNX32 (11753110_a_at) / RFU CDHR5 (11726645_a_at) / Fold change /veh CDHR5 (11726645_a_at) / RFU RCAN1 (11760418_a_at) / Fold change /veh RCAN1 (11760418_a_at) / RFU FAM167A (11723789_a_at) / Fold change /veh FAM167A (11723789_a_at) / RFU FAM26E (11764081_at) / Fold change /veh FAM26E (11764081_at) / RFU ISYNA1 (11749810_s_at) / Fold change /veh ISYNA1 (11749810_s_at) / RFU ACY1 (11761880_at) / Fold change /veh ACY1 (11761880_at) / RFU 11764098_at / Fold change /veh 11764098_at / RFU SAMD14 (11745864_x_at) / Fold change /veh SAMD14 (11745864_x_at) / RFU NPB (11741838_a_at) / Fold change /veh NPB (11741838_a_at) / RFU TMPRSS6 (11731388_a_at) / Fold change /veh TMPRSS6 (11731388_a_at) / RFU KRTAP10-2 (11738614_at) / Fold change /veh KRTAP10-2 (11738614_at) / RFU ARHGAP8 /// PRR5-ARHGAP8 (11727945_x_at) / Fold change /veh ARHGAP8 /// PRR5-ARHGAP8 (11727945_x_at) / RFU KRTAP5-7 /// NADSYN1 (11734609_at) / Fold change /veh KRTAP5-7 /// NADSYN1 (11734609_at) / RFU RASL12 (11751679_a_at) / Fold change /veh RASL12 (11751679_a_at) / RFU CDKN2B (11736163_a_at) / Fold change /veh CDKN2B (11736163_a_at) / RFU PRF1 (11729649_at) / Fold change /veh PRF1 (11729649_at) / RFU, ZNF638 /// ZNF638-IT1 / Fold change vs veh, ZNF638 /// ZNF638-IT1 / RFU, PANK3 / Fold change vs veh, PANK3 / RFU, SH3YL1 / Fold change vs veh, SH3YL1 / RFU, ZEB2 / Fold change vs veh, ZEB2 / RFU, NRIP1 / Fold change vs veh, NRIP1 / RFU, PTTG1IP / Fold change vs veh, PTTG1IP / RFU, CAPN2 / Fold change vs veh, CAPN2 / RFU, MED14 / Fold change vs veh, MED14 / RFU, SNORA58 / Fold change vs veh, SNORA58 / RFU, C1orf63 / Fold change vs veh, C1orf63 / RFU, LRRFIP1 / Fold change vs veh, LRRFIP1 / RFU, NDUFAF7 / Fold change vs veh, NDUFAF7 / RFU, SLC12A2 / Fold change vs veh, SLC12A2 / RFU, IBTK / Fold change vs veh, IBTK / RFU, ESF1 / Fold change vs veh, ESF1 / Fold change vs veh, TMEM50B / RFU, TAOK1 / Fold change vs veh, TAOK1 / RFU, ACBD3 / Fold change vs veh, ACBD3 / RFU, TMA16 / Fold change vs veh, TMA16 / RFU, RWDD3 / Fold change vs veh, RWDD3 / RFU, BCAT1 / Fold change vs veh, BCAT1 / RFU, EDEM3 / Fold change vs veh, EDEM3 / RFU, TMEM33 / Fold change vs veh, TMEM33 / RFU, WDR75 / Fold change vs veh, WDR75 / RFU, AHCTF1 / Fold change vs veh, AHCTF1 / RFU, TFRC / Fold change vs veh, TFRC / RFU, ZDHHC17 / Fold change vs veh, ZDHHC17 / RFU, NOM1 / Fold change vs veh, NOM1 / RFU, ARL8B / Fold change vs veh, ARL8B / RFU, ZBTB11 / Fold change vs veh, ZBTB11 / RFU, TAMM41 / Fold change vs veh, TAMM41 / RFU, KIAA1704 /// LOC100996395 / Fold change vs veh, KIAA1704 /// LOC100996395 / RFU, ING1 / Fold change vs veh, ING1 / RFU, TRMT61B / Fold change vs veh, TRMT61B / RFU, FUBP3 / Fold change vs veh, FUBP3 / RFU, TP53 / Fold change vs veh, TP53 / RFU, TNKS2 / Fold change vs veh, TNKS2 / RFU, ZFP14 / Fold change vs veh, ZFP14 / RFU, ACTR2 / Fold change vs veh, ACTR2 / RFU, PPP3R1 / Fold change vs veh, PPP3R1 / RFU, PIK3R1 / Fold change vs veh, PIK3R1 / RFU, HNRNPA1 / Fold change vs veh, HNRNPA1 / RFU, RNF170 / Fold change vs veh, RNF170 / RFU, ZNF28 / Fold change vs veh, ZNF28 / RFU, RNGTT / Fold change vs veh, RNGTT / RFU, OGT / Fold change vs veh, OGT / RFU, BRD1 / Fold change vs veh, BRD1 / RFU, MARS / Fold change vs veh, MARS / RFU, ZNF655 / Fold change vs veh, ZNF655 / RFU, FAHD1 / Fold change vs veh, FAHD1 / RFU, BDP1 / Fold change vs veh, BDP1 / RFU, LRRCC1 / Fold change vs veh, LRRCC1 / RFU, ARID1A / Fold change vs veh, ARID1A / RFU, ZNF146 / Fold change vs veh, ZNF146 / RFU, ZNF330 / Fold change vs veh, ZNF330 / RFU, GPN3 / Fold change vs veh, GPN3 / RFU, C9orf123 / Fold change vs veh, C9orf123 / RFU, N4BP2L2 / Fold change vs veh, N4BP2L2 / RFU, ARFIP1 / Fold change vs veh, ARFIP1 / RFU, FAM179B / Fold change vs veh, FAM179B / RFU, BCL10 / Fold change vs veh, BCL10 / RFU, UHRF1BP1L / Fold change vs veh, UHRF1BP1L / RFU, BET1 / Fold change vs veh, BET1 / RFU, CNOT2 / Fold change vs veh, CNOT2 / RFU, ZNF268 / Fold change vs veh, ZNF268 / Fold change vs veh, ZNF507 / RFU, DGCR2 / Fold change vs veh, DGCR2 / RFU, WDSUB1 / Fold change vs veh, WDSUB1 / Fold change vs veh, HSP90B1 /// MIR3652 / RFU, ADSS / Fold change vs veh, ADSS / RFU, GK / Fold change vs veh, GK / RFU, ZNF148 / Fold change vs veh, ZNF148 / RFU, TAF9 / Fold change vs veh, TAF9 / RFU, SLC1A5 / Fold change vs veh, SLC1A5 / RFU, SLMO2 / Fold change vs veh, SLMO2 / RFU, ABCC4 / Fold change vs veh, ABCC4 / RFU, LOC101060439 /// RAP1B / Fold change vs veh, LOC101060439 /// RAP1B / RFU, RFX7 / Fold change vs veh, RFX7 / RFU, GTPBP10 / Fold change vs veh, GTPBP10 / RFU, CNEP1R1 / Fold change vs veh, CNEP1R1 / RFU, BIVM-ERCC5 /// ERCC5 / Fold change vs veh, BIVM-ERCC5 /// ERCC5 / RFU, ILF3 / Fold change vs veh, ILF3 / RFU 11762660_at / Fold change /veh 11762660_at / RFU VCAN (11757783_s_at) / Fold change /veh VCAN (11757783_s_at) / RFU DDX43 (11728927_at) / Fold change /veh DDX43 (11728927_at) / RFU KRT8 (11758188_x_at) / Fold change /veh KRT8 (11758188_x_at) / RFU NKD1 (11759106_at) / Fold change /veh NKD1 (11759106_at) / RFU SRD5A1 (11742802_a_at) / Fold change /veh SRD5A1 (11742802_a_at) / RFU TPSAB1 /// TPSB2 (11721975_s_at) / Fold change /veh TPSAB1 /// TPSB2 (11721975_s_at) / RFU GSTM3 (11746129_a_at) / Fold change /veh GSTM3 (11746129_a_at) / RFU IL23R (11737362_x_at) / Fold change /veh IL23R (11737362_x_at) / RFU TMEM51 (11727254_a_at) / Fold change /veh TMEM51 (11727254_a_at) / RFU PIWIL2 (11732686_x_at) / Fold change /veh PIWIL2 (11732686_x_at) / RFU ORM1 (11744905_x_at) / Fold change /veh ORM1 (11744905_x_at) / RFU CCDC152 (11743942_at) / Fold change /veh CCDC152 (11743942_at) / RFU ECM1 (11717891_a_at) / Fold change /veh ECM1 (11717891_a_at) / RFU IL23R (11748794_a_at) / Fold change /veh IL23R (11748794_a_at) / RFU TNFAIP8L3 (11732012_x_at) / Fold change /veh TNFAIP8L3 (11732012_x_at) / RFU MBOAT4 (11741988_at) / Fold change /veh MBOAT4 (11741988_at) / RFU 11764193_at / Fold change /veh 11764193_at / RFU TMEM53 (11763286_at) / Fold change /veh TMEM53 (11763286_at) / RFU MAGEB2 (11727129_at) / Fold change /veh MAGEB2 (11727129_at) / RFU TMEM200A (11744735_a_at) / Fold change /veh TMEM200A (11744735_a_at) / RFU CCDC152 (11751479_a_at) / Fold change /veh CCDC152 (11751479_a_at) / RFU FAM211A (11726209_a_at) / Fold change /veh FAM211A (11726209_a_at) / RFU RGS16 (11746705_a_at) / Fold change /veh RGS16 (11746705_a_at) / RFU VCAN (11755009_s_at) / Fold change /veh VCAN (11755009_s_at) / RFU RHOB (11743442_s_at) / Fold change /veh RHOB (11743442_s_at) / RFU RGS16 (11720943_a_at) / Fold change /veh RGS16 (11720943_a_at) / RFU RGS16 (11720944_at) / Fold change /veh RGS16 (11720944_at) / RFU, VPS4B / Fold change vs veh, VPS4B / RFU, CREB1 / Fold change vs veh, CREB1 / RFU, DNAJC13 / Fold change vs veh, DNAJC13 / RFU, GNAQ / Fold change vs veh, GNAQ / RFU, CDK5R1 / Fold change vs veh, CDK5R1 / RFU, ZRANB3 / Fold change vs veh, ZRANB3 / RFU, CUL4A / Fold change vs veh, CUL4A / RFU, CCNY / Fold change vs veh, CCNY / RFU, UFL1 / Fold change vs veh, UFL1 / RFU, COG3 / Fold change vs veh, COG3 / RFU, DIAPH2 / Fold change vs veh, DIAPH2 / RFU, SKA2 / Fold change vs veh, SKA2 / RFU, AFF3 / Fold change vs veh, AFF3 / RFU, LMF1 / Fold change vs veh, LMF1 / RFU, IPO11 / Fold change vs veh, IPO11 / RFU, DFFB / Fold change vs veh, DFFB / RFU, FOXP1 / Fold change vs veh, FOXP1 / RFU, CARD8 / Fold change vs veh, CARD8 / RFU, STRN3 / Fold change vs veh, STRN3 / RFU, ADK / Fold change vs veh, ADK / RFU, RASSF2 / Fold change vs veh, RASSF2 / RFU, WIPF1 / Fold change vs veh, WIPF1 / RFU, LARP1B / Fold change vs veh, LARP1B / RFU, RASA1 / Fold change vs veh, RASA1 / RFU, RB1 / Fold change vs veh, RB1 / RFU, PPFIA1 / Fold change vs veh, PPFIA1 / RFU, MAT2A / Fold change vs veh, MAT2A / RFU, CCT5 / Fold change vs veh, CCT5 / RFU, WDR92 / Fold change vs veh, WDR92 / RFU, CUX1 / Fold change vs veh, CUX1 / RFU, TTC7A / Fold change vs veh, TTC7A / RFU, TMEM135 / Fold change vs veh, TMEM135 / RFU, DEPTOR / Fold change vs veh, DEPTOR / RFU, CPM / Fold change vs veh, CPM / RFU, DNAJB6 / Fold change vs veh, DNAJB6 / RFU, CACNA2D3 / Fold change vs veh, CACNA2D3 / RFU, DTX4 / Fold change vs veh, DTX4 / RFU, TFCP2 / Fold change vs veh, TFCP2 / RFU, GMCL1 /// GMCL1P1 / Fold change vs veh, GMCL1 /// GMCL1P1 / RFU, AEBP2 / Fold change vs veh, AEBP2 / RFU, SNHG1 /// SNORD22 /// SNORD25 /// SNORD26 /// SNORD27 /// SNORD28 /// SNORD29 /// SNORD31 / Fold change vs veh, SNHG1 /// SNORD22 /// SNORD25 /// SNORD26 /// SNORD27 /// SNORD28 /// SNORD29 /// SNORD31 / Fold change (Aza/veh), C12orf56 (ProbeSet 11735607_a_at) / Fold change (ACY-1035/veh), C12orf56 (ProbeSet 11735607_a_at) / Fold change (Aza/veh), FGFR1OP (ProbeSet 11751329_s_at) / Fold change (ACY-1035/veh), FGFR1OP (ProbeSet 11751329_s_at) / Fold change (Aza/veh), VPS36 (ProbeSet 11739960_a_at) / Fold change (ACY-1035/veh), VPS36 (ProbeSet 11739960_a_at) / RFU SYPL1 (11715823_x_at) / Fold change /veh SYPL1 (11715823_x_at) / RFU IGFBP7 (11715501_s_at) / Fold change /veh IGFBP7 (11715501_s_at) / RFU REEP3 (11722064_at) / Fold change /veh REEP3 (11722064_at) / RFU IGLL1 (11728026_x_at) / Fold change /veh IGLL1 (11728026_x_at): dose or concentration left out as unconfirmed
Settings: ProbeSet 11734782_x_at; LIST D

Compound: Nc1ncn([C@@H]2O[C@H](CO)[C@@H](O)[C@H]2O)c(=O)n1 [azacitidine]
- Fold change vs veh, WDR92: 0.69
